Results taken from patent publication US8772509B2, “Indole compounds as positive allosteric modulators of the muscarinic receptor” (Vanderbilt University, priority 2010, dated 2014).

Target: T1, mAChR M1 (UniProt P08482)
T1 sequence (P08482 1-460): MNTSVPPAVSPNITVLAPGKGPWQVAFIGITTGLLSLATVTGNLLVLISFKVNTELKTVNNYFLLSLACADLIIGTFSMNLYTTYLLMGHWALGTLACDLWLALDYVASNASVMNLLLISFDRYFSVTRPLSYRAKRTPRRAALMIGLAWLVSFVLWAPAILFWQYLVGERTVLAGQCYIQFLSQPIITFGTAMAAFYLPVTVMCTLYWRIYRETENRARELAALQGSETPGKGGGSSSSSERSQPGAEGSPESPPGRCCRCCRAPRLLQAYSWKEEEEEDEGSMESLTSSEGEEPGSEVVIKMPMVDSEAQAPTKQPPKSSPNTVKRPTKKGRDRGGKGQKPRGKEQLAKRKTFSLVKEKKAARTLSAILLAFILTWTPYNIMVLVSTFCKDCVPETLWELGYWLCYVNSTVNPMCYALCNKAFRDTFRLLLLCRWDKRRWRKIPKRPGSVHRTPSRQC
Experiment: mAChR M1 cell-based functional assay (calcium mobilization, Fluo-4, FDSS)
Details: for EC50: positive allosteric modulation of EC20 acetylcholine response, CHO-K1 cells expressing mAChR M1, read-out: Potency (EC50); for Efficacy (% ACh maximum at 30 μM): maximal calcium flux response from curve fit or response at 30 μM compound, as % of the EC80 ACh response
Description: Chinese hamster ovary (CHO-K1) cells stably expressing rat (r)M1 were purchased from the American Type Culture Collection and cultured according to their indicated protocol. […] To make stable rM2, hM2, rM3, hM4, and rM4 cell lines for use in calcium mobilization assays, these cells also were stably transfected with a chimeric G-protein (Gqi5) (provided by B. R. Conklin, University of California, San Francisco) using Lipofectamine 2000. rM1, hM1, rM3, hM3, rM5, and hM5 cells were grown in Ham's F-12 medium containing 10% heat-inactivated fetal bovine serum (FBS), 20 mM HEPES, and 50 μg/mL G418 sulfate. rM2-Gqi5, hM2-Gqi5, and hM4-Gqi5 cells were grown in the same medium also containing 500 μg/mL Hygromycin B. Stable rM4-Gqi5 cells were grown in DMEM containing 10% heat-inactivated FBS, 20 mM HEPES, 400 μg/mL G418 sulfate, and 500 μg/mL Hygromycin B.
For high throughput measurement of agonist-evoked increases in intracellular calcium, CHO-K1 cells stably expressing muscarinic receptors were plated in growth medium lacking G418 and hygromycin at 15,000 cells/20 μL/well in Greiner 384-well black-walled, tissue culture (TC)-treated, clear-bottom plates (VWR). Cells were incubated overnight at 37° C. and 5% CO2. […] Compound master plates were formatted in an 11 point CRC format (1:3 dilutions) in 100% DMSO with a starting concentration of 10 mM using the BRAVO liquid handler (Agilent). Test compound CRCs were then transferred to daughter plates (240 nL) using the Echo acoustic plate reformatter (Labcyte, Sunnyvale, Calif.) and then diluted into assay buffer (40 μL) to a 2× stock using a Thermo Fisher Combi (Thermo Fisher Scientific, Waltham, Mass.).
Calcium flux was measured using the Functional Drug Screening System (FDSS) 6000 (Hamamatsu Corporation, Tokyo, Japan) as an increase in the fluorescent static ratio. Compounds were applied to cells (20 μL, 2×) using the automated system of the FDSS 6000 at 4 s into the 300 s protocol and the data were collected at 1 Hz. […] Agonist activity was analyzed as a concentration-dependent increase in calcium mobilization upon compound addition. Positive allosteric modulator activity was analyzed as a concentration-dependent increase in the EC20 acetylcholine response. Antagonist activity was analyzed as a concentration-dependent decrease in the EC80 acetylcholine response. Concentration-response curves were generated using a four-parameter logistical equation in XLfit curve fitting software (IDBS, Bridgewater, N.J.) for Excel (Microsoft, Redmond, Wash.) or Prism (GraphPad Software, Inc., San Diego, Calif.).
The calcium mobilization assay was also used to determine “efficacy”. In the context of the assays carried out for the data in Table I, “efficacy” (% ACh at 30 μM) is defined as the maximal response in the calcium flux as determined by the sigmoidal curve fit of the concentration response curve, or in the absence of an acceptable curve fit, the response recorded at 30 μM test compound, stated as a percentage of the response elicited by a concentration of Ach that induces approximately 80% of a maximal (i.e. saturating) ACh response.

| EC50 [µM] | Efficacy (% ACh maximum at 30 μM) [%] | SMILES |
| --- | --- | --- |
| > 10 | – | Cc1cc(NC(=O)CS(=O)(=O)c2cn(Cc3ccc(C(F)(F)F)cc3)c3ccccc23)no1 [compound 53, N-(5-methyl-1,2-oxazol-3-yl)-2-(1-{[4-(trifluoromethyl)phenyl]methyl}-1H-indole-3-sulfonyl)acetamide] |
| > 10 | – | Cc1cc(NC(=O)C(Cc2ccc(OC(F)(F)F)cc2)S(=O)(=O)c2cn(Cc3ccc(OC(F)(F)F)cc3)c3ccccc23)no1 (stereo not shown) [compound 74, N-(5-methyl-1,2-oxazol-3-yl)-3-[4-(trifluoromethoxy)phenyl]-2-(1-{[4-(trifluoromethoxy)phenyl]methyl}-1H-indole-3-sulfonyl)propanamide] |
| > 10 | – | Cc1cc(NC(=O)CSc2c[nH]c3ccccc23)no1 [compound 41, 2-(1H-indol-3-ylsulfanyl)-N-(5-methyl-1,2-oxazol-3-yl)acetamide] |
| 6.54 | 79 | COc1cccc(Cn2cc(S(=O)(=O)CC(=O)Nc3cc(C)on3)c3ccccc32)c1 [compound 33, 2-((1-(3-methoxybenzyl)-1H-indol-3-yl)sulfonyl)-N-(5-methylisoxazol-3-yl)acetamide] |
| 0.99 | 59 | O=C(CS(=O)(=O)c1cn(Cc2ccccc2)c2cc(F)cc(F)c12)Nc1ccccn1 [compound 1, 2-((1-benzyl-4,6-difluoro-1H-indol-3-yl)sulfonyl)-N-(pyridin-2-yl)acetamide] |
| 3.7 | 72 | O=C(CS(=O)(=O)c1cn(Cc2cccc(Br)c2)c2cc(F)cc(F)c12)Nc1noc2ccccc12 [compound 21, N-(benzo[d]isoxazol-3-yl)-2-((1-(3-bromobenzyl)-4,6-difluoro-1H-indol-3-yl)sulfonyl)acetamide] |
| > 10 | – | Cc1cc(NC(=O)CS(=O)(=O)c2cn(Cc3ccc4c(c3)OCO4)c3ccccc23)no1 [compound 50, 2-[1-(2H-1,3-benzodioxol-5-ylmethyl)-1H-indole-3-sulfonyl]-N-(5-methyl-1,2-oxazol-3-yl)acetamide] |
| > 10 | – | COc1ccc(Cn2cc(S(=O)(=O)CC(=O)Nc3cc(C)on3)c3ccccc32)cc1 [compound 46, 2-{1-[(4-methoxyphenyl)methyl]-1H-indole-3-sulfonyl}-N-(5-methyl-1,2-oxazol-3-yl)acetamide] |
| 3.4 | 42 | Cc1noc(C)c1-c1cccc(Cn2cc(S(=O)(=O)CC(=O)Nc3ccccn3)c3c(F)cc(F)cc32)c1 [compound 17, 2-((1-(3-(3,5-dimethylisoxazol-4-yl)benzyl)-4,6-difluoro-1H-indol-3-yl)sulfonyl)-N-(pyridin-2-yl)acetamide] |
| 2.6 | 67 | O=C(CS(=O)(=O)c1cn(Cc2cccc(-n3ccnn3)c2)c2cc(F)cc(F)c12)Nc1ccccn1 [compound 10, 2-((1-(3-(1H-1,2,3-triazol-1-yl)benzyl)-4,6-difluoro-1H-indol-3-yl)sulfonyl)-N-(pyridn-2-yl)acetamide] |
| > 10 | – | O=C(CS(=O)(=O)c1cn(Cc2cc(Br)ccc2F)c2ccccc12)Nc1ccccc1 [compound 59, 2-{1-[(5-bromo-2-fluorophenyl)methyl]-1H-indole-3-sulfonyl}-N-phenylacetamide] |
| > 10 | – | Cc1cc(NC(=O)CS(=O)(=O)c2cn(Cc3ccc(Br)cc3F)c3ccccc23)no1 [compound 60, 2-{1-[(4-bromo-2-fluorophenyl)methyl]-1H-indole-3-sulfonyl}-N-(5-methyl-1,2-oxazol-3-yl)acetamide] |
| > 10 | – | Cc1cc(NC(=O)CS(=O)(=O)c2cn(Cc3cccc(-c4ccc(Cl)nc4)c3)c3ccccc23)no1 [compound 64, 2-(1-{[3-(6-chloropyridin-3-yl)phenyl]methyl}-1H-indole-3-sulfonyl)-N-(5-methyl-1,2-oxazol-3-yl)acetamide] |
| > 10 | – | Cc1cc(NC(=O)CS(=O)(=O)c2cn(Cc3ccc(Cl)cc3)c3ccccc23)no1 [compound 48, 2-{1-[(4-chlorophenyl)methyl]-1H-indole-3-sulfonyl}-N-(5-methyl-1,2-oxazol-3-yl)acetamide] |
| 5.2 | 42 | O=C(CS(=O)(=O)c1cn(Cc2cccc(-c3ccc(F)nc3)c2)c2cc(F)cc(F)c12)Nc1ccccn1 [compound 27, 2-((4,6-difluoro-1-(3-(6-fluoropyridin-3-yl)benzyl)-1H-indol-3-yl)sulfonyl)-N-(pyridin-2-yl)acetamide] |
| 3.4 | 50 | COc1ncc(-c2cccc(Cn3cc(S(=O)(=O)CC(=O)Nc4ccccn4)c4c(F)cc(F)cc43)c2)cn1 [compound 18, 2-((4,6-difluoro-1-(3-(2-methoxypyrimidin-5-yl)benzyl)-1H-indol-3-yl)sulfonyl)-N-(pyridin-2-yl)acetamide] |
| > 10 | – | Cc1cc(NC(=O)CS(=O)(=O)c2cn(Cc3ccccc3F)c3ccccc23)no1 [compound 43, 2-{1-[(2-fluorophenyl)methyl]-1H-indole-3-sulfonyl}-N-(5-methyl-1,2-oxazol-3-yl)acetamide] |
| 2.75 | 95 | Cc1cc(NC(=O)CS(=O)(=O)c2cn(Cc3cccc(-c4cnn(C)c4)c3)c3ccccc23)no1 [compound 12, 2-((1-(3-(1-methyl-1H-pyrazol-4-yl)benzyl)-1H-indol-3-yl)sulfonyl)-N-(5-methylisoxazol-3-yl)acetamide] |
| > 10 | – | Cc1cc(NC(=O)CS(=O)(=O)c2cn(Cc3ccc(F)c(-c4cc[nH]n4)c3)c3ccccc23)no1 [compound 58, 2-(1-{[4-fluoro-3-(1H-pyrazol-3-yl)phenyl]methyl}-1H-indole-3-sulfonyl)-N-(5-methyl-1,2-oxazol-3-yl)acetamide] |
| > 10 | – | Cc1cc(NC(=O)CS(=O)(=O)c2cn(Cc3cccc(-c4cnn(CC(C)C)c4)c3)c3ccccc23)no1 [compound 65, N-(5-methyl-1,2-oxazol-3-yl)-2-[1-({3-[1-(2-methylpropyl)-1H-pyrazol-4-yl]phenyl}methyl)-1H-indole-3-sulfonyl]acetamide] |
| > 10 | – | Cc1cc(NC(=O)CSc2cn(Cc3cccc(Br)c3)c3ccccc23)no1 [compound 51, 2-({1-[(3-bromphenyl)methyl]-1H-indol-3-yl}sulfanyl)-N-(5-methyl-1,2-oxazol-3-yl)acetamide] |
| > 10 | 48 | O=C(CS(=O)(=O)c1cn(Cc2cccc(Br)c2)c2cc(F)cc(F)c12)Nc1cncnc1 [compound 37, 2-((1-(3-bromobenzyl)-4,6-difluoro-1H-indol-3-yl)sulfonyl)-N-(pyrimidin-5-yl)acetamide] |
| > 10 | – | Cc1cc(NC(=O)CS(=O)(=O)c2cn(Cc3cccc(-c4ccccc4)c3)c3ccccc23)no1 [compound 56, N-(5-methyl-1,2-oxazol-3-yl)-2-{1-[(3-phenylphenyl)methyl]-1H-indole-3-sulfonyl}acetamide] |
| 2.4 | 68 | Cc1cc(NC(=O)CS(=O)(=O)c2cn(Cc3cccc(-c4cccnc4)c3)c3cc(F)cc(F)c23)no1 [compound 8, 2-((4,6-difluoro-1-(3-(pyridin-3-yl)benzyl)-1H-indol-3-yl)sulfonyl)-N-(5-methylisoxazol-3-yl)acetamide] |
